How the values were obtained:
[1] = system: Spontaneously hypertensive rats (SHR); assay: Acute efficacy in spontaneously hypertensive rats (SHR): telemetry blood pressure lowering after a single oral dose; assay type: in vivo, rat
Summary of the method: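 Male SHR carrying aortic telemetry implants (14-day recovery) received a single oral gavage of compound or vehicle (10% transcutol/20% Cremophor/70% water). Conscious blood pressure was sampled 30 s every 10 min and averaged hourly; change was taken against the prior-day vehicle baseline, reported as maximum peak SBP decrease at a given PO dose (mpk).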

[2] = target: T1, sGC α1/β1 heterodimer (Homo sapiens, UniProt Q02108+Q02153); assay: Cell-based sGC functional assay (CASA assay): cGMP generation in CHO-K1/sGC cells, HTRF detection; conditions: for Emax: CHO-K1, percent activation relative to standard Compound A in CHO-K1/sGC cells, read-out: % Act.; for EC50: inflection point (IP) of cGMP generation in CHO-K1/sGC cells, 4P fit, activity expressed as percentage of Compound A
T1 construct: expressed in transfected cells; host or cells: CHO-K1 (clone #7, CHO-K1/sGC)
T1 sequence (Q02108 1-690): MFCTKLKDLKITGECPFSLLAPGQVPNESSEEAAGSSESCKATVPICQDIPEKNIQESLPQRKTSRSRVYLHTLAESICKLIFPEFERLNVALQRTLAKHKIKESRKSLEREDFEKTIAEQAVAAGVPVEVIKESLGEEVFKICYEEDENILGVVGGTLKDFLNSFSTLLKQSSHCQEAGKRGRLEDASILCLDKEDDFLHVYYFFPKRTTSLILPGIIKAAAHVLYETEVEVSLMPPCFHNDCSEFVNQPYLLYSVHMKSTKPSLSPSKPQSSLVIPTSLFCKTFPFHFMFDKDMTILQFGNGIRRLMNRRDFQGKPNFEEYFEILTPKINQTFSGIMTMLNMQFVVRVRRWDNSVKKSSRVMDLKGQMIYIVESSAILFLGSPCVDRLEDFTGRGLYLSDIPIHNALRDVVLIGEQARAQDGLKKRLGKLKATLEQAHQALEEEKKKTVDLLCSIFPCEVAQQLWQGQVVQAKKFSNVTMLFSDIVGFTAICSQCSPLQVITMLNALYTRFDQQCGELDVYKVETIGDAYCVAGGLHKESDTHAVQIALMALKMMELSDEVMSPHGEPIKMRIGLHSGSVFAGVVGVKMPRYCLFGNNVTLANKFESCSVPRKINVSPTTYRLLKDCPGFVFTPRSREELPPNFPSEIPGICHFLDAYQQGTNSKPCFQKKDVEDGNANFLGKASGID
T1 sequence (Q02153 1-619): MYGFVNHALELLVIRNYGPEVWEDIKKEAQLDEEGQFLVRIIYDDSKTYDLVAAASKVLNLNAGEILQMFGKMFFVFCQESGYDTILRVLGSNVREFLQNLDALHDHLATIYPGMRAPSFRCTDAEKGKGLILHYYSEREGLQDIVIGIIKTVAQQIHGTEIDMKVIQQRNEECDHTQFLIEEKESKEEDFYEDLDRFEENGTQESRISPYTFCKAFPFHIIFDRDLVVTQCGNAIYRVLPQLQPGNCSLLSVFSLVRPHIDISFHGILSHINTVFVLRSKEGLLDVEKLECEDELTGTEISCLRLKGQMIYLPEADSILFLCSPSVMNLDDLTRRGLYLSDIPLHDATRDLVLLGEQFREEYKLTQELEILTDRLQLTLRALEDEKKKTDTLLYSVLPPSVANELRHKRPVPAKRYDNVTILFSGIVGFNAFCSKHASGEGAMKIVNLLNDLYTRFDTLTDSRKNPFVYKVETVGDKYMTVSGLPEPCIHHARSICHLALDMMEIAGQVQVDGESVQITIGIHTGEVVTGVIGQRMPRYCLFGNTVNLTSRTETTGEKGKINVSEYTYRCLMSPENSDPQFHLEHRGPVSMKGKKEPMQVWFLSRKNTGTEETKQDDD
Summary of the method: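 Stable CHO-K1/sGC cells in EBSS buffer with 5 mM MgCl2, 0.05% BSA and 0.5 mM IBMX were incubated with compound (2.5% DMSO final) ±1 μM DETA-NO for 1 hr at 37° C. cGMP was measured by HTRF. Activation is expressed as % of reference HDA Compound A maximum, with IP and max fold induction from a 4P fit.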

SMILES	Emax [2]	EC50 [2]	Maximum peak decrease of systolic blood pressure (SBP) in SHR, Cat. ([1]; P.O. 0.3 mpk)	Maximum peak decrease of systolic blood pressure (SBP) in SHR, Cat. ([1]; P.O. 0.1 mpk)	Maximum peak decrease of systolic blood pressure (SBP) in SHR, Cat. ([1]; P.O. 2.0 mpk)	Maximum peak decrease of systolic blood pressure (SBP) in SHR, Cat. ([1]; P.O. 1.0 mpk)	Maximum peak decrease of systolic blood pressure (SBP) in SHR, Cat. ([1]; P.O. 3.0 mpk)
Nc1nc(-c2cn3ccnc3c(CCCC(F)(F)F)n2)nc2c1C(c1ccc(F)c(F)c1)(C1CC1)C(=O)N2 (stereo not drawn) [Example 317A, 4-amino-5-cyclopropyl-5-(3,4-difluorophenyl)-2-(8-(4,4,4-trifluorobutyl)imidazo[1,2-a]pyrazin-6-yl)-5H-pyrrolo[2,3-d]pyrimidin-6(7H)-one]	156%	75 nM	–	B (Category B=SBP in SHRs 20-40 mmHg)	–	–	–
Nc1nc(-c2cn3ccnc3c(CCC(F)(F)F)n2)nc2c1C(c1ccc(F)c(F)c1)(C1CC1)C(=O)N2 (stereo not drawn) [Example 318A, 4-amino-5-cyclopropyl-5-(3,4-difluorophenyl)-2-(8-(3,3,3-trifluoropropyl)imidazo[1,2-a]pyrazin-6-yl)-5H-pyrrolo[2,3-d]pyrimidin-6(7H)-one]	127%	2180 nM	–	–	A (Category A=SBP in SHRs<20 mmHg)	–	–
CCCc1nc(-c2nc(N)c3c(n2)NC(=O)C3(c2ccc(Cl)c(F)c2)C2CC2)cn2ccnc12 (stereo not drawn) [Example 327A, 4-amino-5-(4-chloro-3-fluorophenyl)-5-cyclopropyl-2-(8-propylimidazo[1,2-a]pyrazin-6-yl)-5H-pyrrolo[2,3-d]pyrimidin-6(7H)-one]	112%	134 nM	–	–	–	A (Category A=SBP in SHRs<20 mmHg)	–
Nc1nc(-c2cn3ccnc3c(CCC(F)(F)F)n2)nc2c1C(c1ccc(OC(F)(F)F)cc1)(C1CC1)C(=O)N2 (stereo not drawn) [Example 328A, 4-amino-5-cyclopropyl-5-(4-(trifluoromethoxy)phenyl)-2-(8-(3,3,3-trifluoropropyl)imidazo[1,2-a]pyrazin-6-yl)-5H-pyrrolo[2,3-d]pyrimidin-6(7H)-one]	106%	1040 nM	–	–	–	–	A (Category A=SBP in SHRs<20 mmHg)
CCCc1nc(-c2nc(N)c3c(n2)NC(=O)C3(c2ccc(F)c(F)c2)C2CC2)cn2ccnc12 (stereo not drawn) [Example 334A, 4-amino-5-cyclopropyl-5-(3,4-difluorophenyl)-2-(8-propylimidazo[1,2-a]pyrazin-6-yl)-5H-pyrrolo[2,3-d]pyrimidin-6(7H)-one]	111%	278 nM	–	–	–	–	A (Category A=SBP in SHRs<20 mmHg)
CC(C)Cc1nc(-c2nc(N)c3c(n2)NC(=O)C3(c2ccc(F)c(F)c2)C2CC2)cn2ccnc12 (stereo not drawn) [Example 335A, 4-amino-5-cyclopropyl-5-(3,4-difluorophenyl)-2-(8-isobutylimidazo[1,2-a]pyrazin-6-yl)-5H-pyrrolo[2,3-d]pyrimidin-6(7H)-one]	140%	303 nM	–	–	–	–	B (Category B=SBP in SHRs 20-40 mmHg)
Nc1nc(-c2cn3ccnc3c(CCC(F)(F)F)n2)nc2c1C(c1ccc(Cl)cc1F)(C1CC1)C(=O)N2 (stereo not drawn) [Example 338A, 4-amino-5-(4-chloro-2-fluorophenyl)-5-cyclopropyl-2-(8-(3,3,3-trifluoropropyl)imidazo[1,2-a]pyrazin-6-yl)-5H-pyrrolo[2,3-d]pyrimidin-6(7H)-one]	158%	178 nM	–	–	B (Category B=SBP in SHRs 20-40 mmHg)	–	–
Nc1nc(-c2cn3ccnc3c(CCCC(F)(F)F)n2)nc2c1C(c1ccc(Cl)cc1F)(C1CC1)C(=O)N2 (stereo not drawn) [Example 339A, 4-amino-5-(4-chloro-2-fluorophenyl)-5-cyclopropyl-2-(8-(4,4,4-trifluorobutyl)imidazo[1,2-a]pyrazin-6-yl)-5H-pyrrolo[2,3-d]pyrimidin-6(7H)-one]	325%	122 nM	B (Category B=SBP in SHRs 20-40 mmHg)	–	–	–	–
Nc1nc(-c2cn3ccnc3c(CCCC(F)(F)F)n2)nc2c1C(c1ccc(OC(F)(F)F)cc1)(C1CC1)C(=O)N2 (stereo not drawn) [Example 347A, 4-amino-5-cyclopropyl-2-(8-(4,4,4-trifluorobutyl)imidazo[1,2-a]pyrazin-6-yl)-5-(4-(trifluoromethoxy)phenyl)-5H-pyrrolo[2,3-d]pyrimidin-6(7H)-one]	107%	131 nM	–	–	–	B (Category B=SBP in SHRs 20-40 mmHg)	–
Nc1nc(-c2cn3ccnc3c(CCC(F)(F)C(F)(F)F)n2)nc2c1C(c1ncc(Cl)cn1)(C1CC1)C(=O)N2 (stereo not drawn) [Example 349A, 4-amino-5-(5-chloropyrimidin-2-yl)-5-cyclopropyl-2-(8-(3,3,4,4,4-pentafluorobutyl)imidazo[1,2-a]pyrazin-6-yl)-5H-pyrrolo[2,3-d]pyrimidin-6(7H)-one]	107%	213 nM	–	–	B (Category B=SBP in SHRs 20-40 mmHg)	–	–

Now those with a lower EC50 [2], led by results:

Emax [2]	EC50 [2]	SMILES	Maximum peak decrease of systolic blood pressure (SBP) in SHR, Cat. ([1]; P.O. 0.3 mpk)	Maximum peak decrease of systolic blood pressure (SBP) in SHR, Cat. ([1]; P.O. 0.1 mpk)	Maximum peak decrease of systolic blood pressure (SBP) in SHR, Cat. ([1]; P.O. 2.0 mpk)	Maximum peak decrease of systolic blood pressure (SBP) in SHR, Cat. ([1]; P.O. 1.0 mpk)	Maximum peak decrease of systolic blood pressure (SBP) in SHR, Cat. ([1]; P.O. 3.0 mpk)
132%	65 nM	CCCCc1nc(-c2nc(N)c3c(n2)NC(=O)C3(c2ccc(OC(F)(F)F)cc2)C2CC2)cn2ccnc12 (stereo not drawn) [Example 346A]	–	–	–	B (Category B=SBP in SHRs 20-40 mmHg)	–
141%	30 nM	CCCCc1nc(-c2nc(N)c3c(n2)NC(=O)C3(c2ccc(Cl)cc2)C2CC2)cn2ccnc12 (stereo not drawn) [Example 332B, 4-amino-2-(8-butylimidazo[1,2-a]pyrazin-6-yl)-5-(4-chlorophenyl)-5-cyclopropyl-5H-pyrrolo[2,3-d]pyrimidin-6(7H)-one]	B (Category B=SBP in SHRs 20-40 mmHg)	–	–	–	–
156%	29 nM	Nc1nc(-c2cn3ccnc3c(CCCC(F)(F)F)n2)nc2c1C(c1ccc(Cl)cc1)(C1CC1)C(=O)N2 (stereo not drawn) [Example 316B, 4-amino-5-(4-chlorophenyl)-5-cyclopropyl-2-(8-(4,4,4-trifluorobutyl)imidazo[1,2-a]pyrazin-6-yl)-5H-pyrrolo[2,3-d]pyrimidin-6(7H)-one]	B (Category B=SBP in SHRs 20-40 mmHg)	–	–	–	–
142%	22 nM	CCCCc1nc(-c2nc(N)c3c(n2)NC(=O)C3(c2ccc(F)c(F)c2)C2CC2)cn2ccnc12 (stereo not drawn) [Example 330A, 4-amino-2-(8-butylimidazo[1,2-a]pyrazin-6-yl)-5-cyclopropyl-5-(3,4-difluorophenyl)-5H-pyrrolo[2,3-d]pyrimidin-6(7H)-one]	B (Category B=SBP in SHRs 20-40 mmHg)	–	–	–	–
131%	22 nM	CCCCc1nc(-c2nc(N)c3c(n2)NC(=O)C3(c2ccc(Cl)cn2)C2CC2)cn2ccnc12 (stereo not drawn) [Example 336B, 4-amino-2-(8-butylimidazo[1,2-a]pyrazin-6-yl)-5-(5-chloropyridin-2-yl)-5-cyclopropyl-5H-pyrrolo[2,3-d]pyrimidin-6(7H)-one]	B (Category B=SBP in SHRs 20-40 mmHg)	–	–	–	–
93%	16 nM	CCCCc1nc(-c2nc(N)c3c(n2)NC(=O)C3(c2ccc(Cl)c(F)c2)C2CC2)cn2ccnc12 (stereo not drawn) [Example 329A, 4-amino-2-(8-butylimidazo[1,2-a]pyrazin-6-yl)-5-(4-chloro-3-fluorophenyl)-5-cyclopropyl-5H-pyrrolo[2,3-d]pyrimidin-6(7H)-one]	B (Category B=SBP in SHRs 20-40 mmHg)	–	–	–	–

From patent publication US9796733B2, “Imidazo-pyrazine derivatives useful as soluble guanylate cyclase activators” (Merck Sharp & Dohme Corp., priority 2014, dated 2017)
